From patent publication US20220211657A1, “METHODS OF TREATING GASTROINTESTINAL CANCERS AND TUMORS THEREOF USING COMBINATION THERAPY” (GEORGETOWN UNIVERSITY, priority 2019, published 2022)

What was measured:
[1] = Pharmacokinetic assessment of veliparib (Day 1, 3, 7 samples); type: in vivo, human; conditions: 14 subjects in 5 dosing cohorts
Protocol: For the Phase I portion of the study, plasma samples were obtained from patients on Day 1 (pre-dose), Day 3, and Day 7 for pharmacokinetic (PK) assessment of veliparib. Results were compared to historical controls to identify any effect on veliparib pharmacokinetics by oxaliplatin or 5-fluorouracil. […] Next generation sequencing (NGS) of cancer-related genes was performed on tumor samples. Results from patients were captured, if ordered by the treating physician prior to enrollment, and sequencing was performed commercially by Foundation Medicine (FM), Caris Life Sciences, or through commercial germline testing labs such as Myriad or Invitae. […] Patients were defined as harboring HR-DDR mutations if a known pathogenic mutation in one of the HR-DDR genes (including but not limited to: ARID1A, ATM, ATRX, MRE11A, NBN, PTEN, RAD50/51/51B, BARD1, BLM, BRCA1, BRCA2, BRIP1, FANCA/C/D2/E/F/G/L, PALB2, WRN, CHEK2, CHEK1, BAP1, FAM175A, SLX4, MLL2, or XRCC) was identified in a blood sample (germline) or tumor sample (somatic).

[2] = Phase I dose escalation of veliparib plus FOLFOX (dose limiting toxicities, recommended Phase II dose); type: in vivo
Protocol: The study was designed as a single center, Phase I/II, open label study of veliparib plus FOLFOX. At the time of study initiation, the dose and schedule for modified FOLFOX (de Gramont et al., “Leucovorin and Fluorouracil With or Without Oxaliplatin as First-Line Treatment in Advanced Colorectal Cancer,” J. Clin. Oncol. 18:2938-2947 (2000), which is hereby incorporated by reference in its entirety) was used (5-fluorouracil bolus 400 mg/m^2 Day 1; leucovorin 400 mg/m^2 Day 1; oxaliplatin 85 mg/m^2 Day 1; and 5-fluorouracil 2400 mg/m^2 continuous infusion over 46 hours, Days 1-3). Each cycle was 14 days. […] With regards to the veliparib, for the Phase I portion, the dose of veliparib was escalated in a standard 3+3 design from the lowest dose of 40 mg twice a day (BID) days 1-7 of each 14-day cycle. Dose levels were 40 mg, 60 mg, 80 mg, 100 mg, 150 mg, 200 mg, and 250 mg. For the Phase II portion, the recommended Phase II dose (RP2D) was 200 mg of veliparib, though the protocol did allow for stepwise de-escalation to 150 mg and then to 100 mg for toxicity after the first cycle. […] Tumor response was assessed radiographically every 8-12 weeks using Response Evaluation Criteria in Solid Tumors criteria version 1.1 (Eisenhauer et al., “New Response Evaluation Criteria in Solid Tumours: Revised RECIST Guideline (Version 1.1),” Eur. J. Cancer 45:228-247 (2009), which is hereby incorporated by reference in its entirety). […] The primary objective of the Phase I portion was to determine the recommended Phase II dose, with the primary endpoint being adverse events, as measured by the National Cancer Institute Common Terminology Criteria for Adverse Events, Version 4.03, which is hereby incorporated by reference in its entirety. […]
The primary objective of the Phase I portion of the trial was to determine the recommended Phase II dose, by assessing the safety and tolerability as determined by adverse events, defined by the National Cancer Institute Common Terminology Criteria for Adverse Events, Version 4.03, which is hereby incorporated by reference in its entirety. […]

[3] = system: BRCA1/2-mutated pancreatic cancer; conditions: cited from earlier work
BRCA1/2-mutated tumors = conditions: out of 24 patients with BRCA1/2-mutated tumors; cited from earlier work
[4] = system: metastatic pancreatic cancer; conditions: first-line standard of care; cited from earlier work

Structure (SMILES): C[C@]1(c2nc3c(C(N)=O)cccc3[nH]2)CCCN1 [veliparib]
- impact of co-administration of FOLFOX on veliparib pharmacokinetics [1]: no apparent impact
- protocol-defined dose limiting toxicity ([2]; human, in vivo): treatment delay of >3 weeks
- dose limiting toxicities ([2]; in vivo): one
- recommended Phase II dose ([2]; veliparib BID days 1-7 of each 14-day cycle plus FOLFOX): 200 mg

Structure (SMILES): CNCc1ccc(-c2[nH]c3cc(F)cc4c3c2CCNC4=O)cc1 [rucaparib]
- patients who did not respond to platinum but did respond ([3]; in vivo): two
- responses ([3]; out of 19 patients with BRCA1/2-mutated pancreatic cancer): 4

Structure (SMILES): O=C(c1cc(Cc2n[nH]c(=O)c3ccccc23)ccc1F)N1CCN(C(=O)C2CC2)CC1 [olaparib]
- patients who responded (BRCA1/2-mutated tumors): 4 patients

Structure (SMILES): Nc1ccn([C@@H]2O[C@H](CO)[C@@H](O)C2(F)F)c(=O)n1 [gemcitabine]
- response rate [4]: 7%
